Experimental data taken from US6395906B1, “Intermediates to pesticidal 1-arylpyrazoles” (Rhone-Poulenc Inc., priority 1995, dated 2002).

Assays:
Assay type in all cases: in vivo
[1] = system: black cutworm (Agrotis ipsilon); experiment: Black cutworm systemic test (BCW-Sys); details: soil drench 10.0 ppm, corn seedling clipped ten days after treatment; mortality 4 days after infestation
Description: (§1) For cotton aphid systemic tests and black cutwork—systemic tests, the water-acetone-DMF-emulsifier solution was adjusted for a treatment rate of 10.0 ppm soil concentration.
Black cutworm—systemic test (BCW-Sys): Corn seeds were placed on top of the soil surface in pots containing moist soil. The test compound solution was applied as a drench to the top of the soil and seeds for a treatment rate equivalent to 10.0 ppm soil concentration. As an untreated control, an aliquot of water-acetone-DMF-emulsifier solution containing no test compound was applied in a similar manner. The soil surface and seeds were covered with moist soil. The pots were held in the greenhouse for the duration of the bioassay. Ten days after treatment, the corn seedling was clipped and placed in a plastic cup with 2 late second to early third instar black cutworm larvae. Mortality was assessed visually 4 days after infestation.

[2] = system: southern root-knot nematode (Meloidogyne incognita); experiment: Southern root-knot nematode (SRKN) soil test; details: soil treatment 23 kg/ha; tomato or cotton root galling rated after 2-3 weeks
Protocol: (§2) For the tick, aphids, souther armyworm, tobacco budworm, house fly, Mexican bean beetle, American cockroach, cat flea, souther corn rootworm, western corn rootworm, black cutworm, and southern root-knot nematode, a solution or suspension was prepared by adding the test compound to a solution of dimethylformamide, acetone, emulsifiers which are alkylaryl polyether alcohols organic sulfonates, and water. The result was a 100 or 500 ppm concentration of the test compound.
For the southern root-knot nematode tests, the water-acetone-DMF-emulsifier solution was adjusted for a treatment rate of 23 kg/ha soil concentration.
Southern root-knot nematode (SRKN): Eggs and second stage juveniles (J2s) of southern root-knot nematodes were obtained from infected roots of reared tomato plants. Pots containing moist soil were treated with the test compound solution for a treatment rate of 23 kg/ha. As an untreated control, an aliquot of a water-acetone-DMF-emulsifier solution containing no test compound was applied in a similar manner. Immediately after treatment, eggs or J2s of southern root-knot nematode were added to the treated soil. For test with cotton, the seeds were placed on top of the soil the day of treatment and inoculation. For the tests with tomato, the seedlings were transplanted in the pot three days after treatment. The pots were kept in the greenhouse for 2-3 weeks. At the termination of the test, roots of the tomato or cotton seedlings were evaluated for galling on a rating scale from 1 to 5 with one equal to severe galling, relative to untreated control, and five to no galling, i.e., complete control.

[3] = system: greenbug aphid (Schizaphis graminum); experiment: Greenbug aphid systemic test (GA-Sys); details: soil drench 10 or 25 ppm, sorghum; aphid control rated one and three days after infestation
Description: For the greenbug aphid systemic test, the water-acetone-DMF-emulsifier solution was adjusted for a treatment rate of 10 or 25 ppm soil concentration.
Greenburg aphid—systemic test (GA-Sys): Sorghum seeds were placed on top of the soil surface in pots containing moist soil. The test compound solution was applied as a drench to the top of the soil and seeds for a treatment rate equivalent to 10 or 25 ppm soil concentration. As an untreated control, an aliquot of a water-acetone-DMF-emulsifier solution containing no test compound was applied in a similar manner. The soil surface and seeds were covered with moist soil. The pots were held in the greenhouse for the duration of the bioassay. When the sorghum seeds germinated, greenbug aphids were sprinkled evenly over the sorghum pots to about 50 aphids per pot. The plants were rated for aphid control one and three days after infestation.

[4] = system: cotton aphid (Aphis gossypii); experiment: Cotton aphid (CA) foliar spray test; details: cotton plants wet to runoff, 100 or 500 ppm; dead aphids counted after three days
Protocol: as §2
Buckthorn aphid (BA) or cotton aphid (CA): Adult and nymphal stages of buckthorn or cotton aphid were reared on potted dwarf nasturtium or cotton plants, respectively. Plants infested with 100-150 aphids were wet to runoff with the 100 or 500 ppm test compound formulation. As an untreated control, a water-acetone-DMF-emulsifier solution containing no test compound was also applied to runoff to infested plants. The treated plants were stored for one day for buckthorn aphid and three days for cotton aphid, after which the dead aphids were counted.

[5] = system: southern armyworm (Spodoptera eridania); experiment: Southern armyworm (SAW) treated bean leaf test; details: bean leaves, 100 or 500 ppm; second instar larvae, five days
Protocol: as §2
(§3) Southern armyworm (SAW), Mexican bean beetle (MBB): Bean leaves were wet to runoff with the 100 or 500 ppm test compound formulation. As an untreated control, a water-acetone-DMF-emulsifier solution containing no test compound was also applied wet to runoff to bean leaves. Five or six randomly selected second instar southern armyworn larvae or Mexican bean bettle larvae were introduced into each plastic container with the dry treated leaves. The container was closed and held for five days. Larvae which were unable to move the length of the body, even upon stimulation by prodding, were considered dead.

[6] = system: tobacco budworm (Heliothis virescens); experiment: Tobacco budworm (TBW) treated cotton leaf test; details: cotton leaves, 100 ppm; second instar larvae, five days
Protocol: as §2
Tobacco budworm (TBW): Cotton leaves were wet to runoff with the 100 ppm test compound formulation. As an untreated control, a water-acetone-DMF-emulsifier solution containing no test compound was also applied wet to runoff to cotton leaves. Ten randomly selected second instar tobacco budworm larvae were introduced into plastic containers in which moist dental wicks and the dry treated leaves had been placed. The cups were closed and held for five days. Larvae which were unable to move the length of the body, even upon stimulation by prodding, were considered dead.

[7] = system: house fly (Musca domestica); experiment: House fly (HF) bait test; details: sucrose bait, 100 or 250 ppm; adult flies, mortality after 24 hours
Protocol: as §2
For house fly tests, the water-acetone-DMF-emulsifier solution was adjusted with a 20% by weight aqueous solution of sucrose to provide a final 100 or 250 ppm concentration of the test compound.
House fly (HF): Four to six day old adult house flies were used. The files were immobilized by anesthetizing with carbon dioxide. A bait cup was prepared which contained the 100 or 250 ppm test compound formulation/sucrose solution and one or two absorbent cotton pad(s). As an untreated control, a water-acetone-DMF-emulsifier-sucrose solution containing no test compound was applied in a similar manner. The bait cup was introduced inside the cage prior to admitting 12-25 anesthetized flies. Mortality was assessed after 24 hours.

[8] = system: American cockroach (Periplaneta americana); experiment: American cockroach (ACR) treated food pellet test; details: food pellets with 500 ppm formulation; nymphs, contact and feeding mortality 1 and 5 days after infestation
Protocol: as §2
American cockroach (ACR): Cat food or dog food pellets were added to jars containing 1-2 mls of the 500 ppm test formulation. As an untreated control, an aliquot of a water-acetone-DMF-emulsifier solution containing no test compound was applied in a similar manner. After 48 hours, roach nymphs were added to the jar. Contact and feeding mortally was assessed 1 and 5 days after infestation.

[9] = system: western corn rootworm (Diabrotica virgifera virgifera); experiment: Western corn rootworm (WCRW) soil test; details: soil concentration 0.15 or 0.5 ppm; neonate larvae, mortality six days after infestation
Protocol: as §2
For the western corn rootworm test, the water-acetone-DMF-emulsifier solution was adjusted for a treatment rate of 0.15 or 0.5 ppm.
Western corn rootworm (WCRW): The 500 ppm test formulation was applied to dry sandy loam soil contained in a glass jar for a soil concentration of 0.15 or 0.5 ppm. As an untreated control, an aliquot of a water-acetone-DMF-emulsifier solution containing no test compound was applied in a similar manner. After incubating covered for 24 hours, the soil was mixed and four germinated corn seedlings were added to the jar. Ten neonate western corn rootworm larvae were placed in the jar. Six days after infestation, mortality was assessed by Berlese funnel extraction.

[10] = system: southern corn rootworm (Diabrotica undecimpunctata howardi); experiment: Southern corn rootworm (SCRW) soil test; details: soil concentration 2.5, 5, 6.75 or 10 ppm; mortality eight days after infestation
Protocol: as §2
For southern corn rootworm and black cutworm tests, the water-acetone-DMF-emulsifier solution was adjusted for a treatment rate of 2.5, 5, 6.75 or 10 ppm.
Southern corn rootworm (SCRW), Black cutworm (BCW): Corn seeds were placed in a glass jar and covered with dry sandy loam soil. The 500 ppm test formulation was applied for a soil concentration of 2.5, 5, 6.75 or 10 ppm. As an untreated control, an aliquot of a water-acetone-DMF-emulsifier solution containing no test compound was applied in a similar manner. After incubating covered for 24 hours, the soil was mixed and inoculated with approximately 25 southern corn rootworm eggs. Following an additional 48 hours, two late second to early third instar black cutworms were placed in the jar with a portion of insect diet. Eight days after infestation, mortality was assessed visually for cutworm and by Berlese funnel extraction for rootworm.

[11] = system: cotton aphid (Aphis gossypii); experiment: Cotton aphid systemic test (CA-Sys); details: soil drench 10.0 ppm, aphid control rated three and six days after infestation
Description: as §1
Cotton aphid—systemic test (CA-Sys): Cotton seeds were placed on top of the soil surface in pots containing moist soil. The test compound solution was applied as a drench to the top of the soil and seeds for a treatment rate equivalent to 10.0 ppm soil concentration. As an untreated control, an aliquot of a water-acetone-DMF-emulsifier solution containing no test compound was applied in a similar manner. The soil surface and seeds were covered with moist soil. The pots were held in the greenhouse for the duration of the bioassay. When the cotyledons of the cotton were expanded (approximately 7 days after planting), the cotton was infested with approximately 25 cotton aphids (mixed population). The plant were rated for aphid control three and six days after infestation.

[12] = system: Mexican bean beetle (Epilachna varivestis); experiment: Mexican bean beetle (MBB) treated bean leaf test; details: bean leaves, 100 or 500 ppm; second instar larvae, five days
Protocol: as §2, §3

SMILES	BCW-Sys [1]	SRKN [2]	GA-Sys [3]	CA [4]	TBW [6]	ACR [8]	WCRW [9]	further results
CC(O)c1c(SC(F)(F)F)c(C#N)nn1-c1c(Cl)cc(C(F)(F)F)cc1Cl (centres unmarked) [Compound 8, 3-Cyano-1-(2,6-dichloro-4-trifluoromethylphenyl)-5-(1-hydroxy)ethyl-4-trifluoromethylthiopyrazole]	+ (active against 1 or more insects described above up to 100% mortality. This activity is indicated by a “+”)	–	–	–	–	–	–	–
N#Cc1nn(-c2c(Cl)cc(C(F)(F)F)cc2Cl)c(CO)c1[S+]([O-])C(F)(F)F (centres unmarked) [Compound 12, 3-Cyano-1-(2,6-dichloro-4-trifluoromethylphenyl)-5-(hydroxy)methyl-4-trifluoromethylsulfinylpyrazole]	+ (active against 1 or more insects described above up to 100% mortality. This activity is indicated by a “+”)	+ (active against 1 or more insects described above up to 100% mortality. This activity is indicated by a “+”)	+ (active against 1 or more insects described above up to 100% mortality. This activity is indicated by a “+”)	–	–	–	–	–
COC(C#N)c1c([S+]([O-])C(F)(F)F)c(C#N)nn1-c1c(Cl)cc(C(F)(F)F)cc1Cl (centres unmarked) [Compound 14, 3-Cyano-5-{(1-cyano-1-methoxy)methyl}-1-(2,6-dichloro-4-trifluoromethylphenyl)-4-trifluoromethylsulfinylpyrazole]	–	+ (active against 1 or more insects described above up to 100% mortality. This activity is indicated by a “+”)	–	+ (active against 1 or more insects described above up to 100% mortality. This activity is indicated by a “+”)	+ (active against 1 or more insects described above up to 100% mortality. This activity is indicated by a “+”)	+ (active against 1 or more insects described above up to 100% mortality. This activity is indicated by a “+”)	+ (active against 1 or more insects described above up to 100% mortality. This activity is indicated by a “+”)	SAW [5]: + (active against 1 or more insects described above up to 100% mortality. This activity is indicated by a “+”); HF [7]: + (active against 1 or more insects described above up to 100% mortality. This activity is indicated by a “+”); SCRW [10]: + (active against 1 or more insects described above up to 100% mortality. This activity is indicated by a “+”)
N#Cc1nn(-c2c(Cl)cc(C(F)(F)F)cc2Cl)c(C(O)C(F)(F)F)c1SC(F)(F)F (centres unmarked) [Compound 17, 3-Cyano-1-(2,6-dichloro-4-trifluoromethylphenyl)-5-(1-hydroxy-2,2,2-trifluoroethyl)-4-trifluoromethylthiopyrazole]	–	–	–	–	–	+ (active against 1 or more insects described above up to 100% mortality. This activity is indicated by a “+”)	+ (active against 1 or more insects described above up to 100% mortality. This activity is indicated by a “+”)	CA-Sys [11]: + (active against 1 or more insects described above up to 100% mortality. This activity is indicated by a “+”)
C=C(OC(C)=O)c1c(S(=O)(=O)C(F)(F)F)c(C#N)nn1-c1c(Cl)cc(C(F)(F)F)cc1Cl [Compound 21, 3-Cyano-1-(2,6-dichloro-4-trifluoromethylphenyl)-5-(1-acetoxyethenyl)-4-trifluoromethylsulfonylpyrazole]	–	–	+ (active against 1 or more insects described above up to 100% mortality. This activity is indicated by a “+”)	+ (active against 1 or more insects described above up to 100% mortality. This activity is indicated by a “+”)	+ (active against 1 or more insects described above up to 100% mortality. This activity is indicated by a “+”)	–	+ (active against 1 or more insects described above up to 100% mortality. This activity is indicated by a “+”)	MBB [12]: + (active against 1 or more insects described above up to 100% mortality. This activity is indicated by a “+”)
